Measurements taken from publication PMC8632988, “Inhibition of SYK and cSrc kinases can protect bone and cartilage in preclinical models of osteoarthritis and rheumatoid arthritis” (Scientific Reports, 2021).
Values joined by “and” are separate entries in the source; they are usually repeats but may differ in a detail not shown here. Equal entries are not always repeated.

How the values were obtained:
Assay in all cases: Kinase selectivity profile assay
Type in all cases: biochemical
[1] = molecular target: T1, LYN B (Homo sapiens, UniProt P07948); details: for remaining activity at 0.5 µM: 500 nM, relative to DMSO, read-out: Residual enzymatic activity
T1 construct: purchased Reaction Biology Corporation (assay service)
T1 sequence (P07948 1-491 isoform P07948-2): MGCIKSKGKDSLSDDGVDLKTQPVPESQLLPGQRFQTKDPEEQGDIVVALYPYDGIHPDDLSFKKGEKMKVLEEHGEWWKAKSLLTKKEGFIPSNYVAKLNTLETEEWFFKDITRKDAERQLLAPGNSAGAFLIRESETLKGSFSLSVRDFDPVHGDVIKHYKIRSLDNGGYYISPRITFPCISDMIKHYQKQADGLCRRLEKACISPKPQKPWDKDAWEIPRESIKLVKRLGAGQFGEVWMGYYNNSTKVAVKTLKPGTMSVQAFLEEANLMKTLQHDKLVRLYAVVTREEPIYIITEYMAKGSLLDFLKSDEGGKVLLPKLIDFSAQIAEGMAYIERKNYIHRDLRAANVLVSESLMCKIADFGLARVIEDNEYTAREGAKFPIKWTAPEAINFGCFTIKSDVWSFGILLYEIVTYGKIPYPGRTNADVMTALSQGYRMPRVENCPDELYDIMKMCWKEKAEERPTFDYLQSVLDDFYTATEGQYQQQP
Method in brief: (§1)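 Radiometric kinase assay run by a standard protocol. Unbound phosphate was removed by washing filters in phosphoric acid, and product radioactivity gave percent remaining kinase activity versus DMSO vehicle reactions. Run in duplicate.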

[2] = molecular target: T2, TAOK3/JIK (Homo sapiens, UniProt Q9H2K8); details: 500 nM; relative to DMSO; read-out: Residual enzymatic activity
T2 construct: purchased Reaction Biology Corporation
Method in brief: as §1

[3] = molecular target: T3, DRAK1/STK17A (Homo sapiens, UniProt Q9UEE5); details: 500 nM; relative to DMSO; read-out: Residual enzymatic activity
T3 construct: purchased Reaction Biology Corporation
Method in brief: as §1

[4] = molecular target: T4, YES/YES1 (Homo sapiens, UniProt P07947); details: for remaining activity at 0.5 µM: 500 nM, relative to DMSO, read-out: Residual enzymatic activity
T4 construct: purchased Reaction Biology Corporation (Malvern, PA, USA)
T4 sequence (P07947 whole entry): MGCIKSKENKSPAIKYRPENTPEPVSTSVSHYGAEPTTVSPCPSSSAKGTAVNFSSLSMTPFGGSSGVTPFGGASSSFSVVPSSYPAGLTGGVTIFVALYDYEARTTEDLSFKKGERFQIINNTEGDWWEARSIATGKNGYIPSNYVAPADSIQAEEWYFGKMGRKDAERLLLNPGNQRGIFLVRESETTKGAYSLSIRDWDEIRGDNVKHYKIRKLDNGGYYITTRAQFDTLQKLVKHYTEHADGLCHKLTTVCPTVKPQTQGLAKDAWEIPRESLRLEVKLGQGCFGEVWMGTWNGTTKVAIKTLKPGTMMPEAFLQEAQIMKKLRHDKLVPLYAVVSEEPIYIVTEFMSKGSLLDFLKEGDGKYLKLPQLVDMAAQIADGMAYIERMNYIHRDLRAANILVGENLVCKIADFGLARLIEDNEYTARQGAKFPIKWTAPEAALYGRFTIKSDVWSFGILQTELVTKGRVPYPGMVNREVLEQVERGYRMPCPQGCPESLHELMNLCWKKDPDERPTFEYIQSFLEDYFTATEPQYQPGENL
Method in brief: as §1

[5] = molecular target: T5, ALK (Homo sapiens, UniProt Q9UM73); details: 500 nM; relative to DMSO; read-out: Residual enzymatic activity
T5 construct: purchased Reaction Biology Corporation
Method in brief: as §1

[6] = molecular target: T6, CDK3/cyclin E (Homo sapiens, UniProt Q00526); details: 500 nM; relative to DMSO; read-out: Residual enzymatic activity
T6 construct: purchased Reaction Biology Corporation
Method in brief: as §1

[7] = molecular target: T7, LIMK1 (Homo sapiens, UniProt P53667); details: for remaining activity at 0.5 µM: 500 nM, relative to DMSO, read-out: Residual enzymatic activity
T7 construct: purchased Reaction Biology Corporation (assay service)
T7 sequence (P53667 whole entry): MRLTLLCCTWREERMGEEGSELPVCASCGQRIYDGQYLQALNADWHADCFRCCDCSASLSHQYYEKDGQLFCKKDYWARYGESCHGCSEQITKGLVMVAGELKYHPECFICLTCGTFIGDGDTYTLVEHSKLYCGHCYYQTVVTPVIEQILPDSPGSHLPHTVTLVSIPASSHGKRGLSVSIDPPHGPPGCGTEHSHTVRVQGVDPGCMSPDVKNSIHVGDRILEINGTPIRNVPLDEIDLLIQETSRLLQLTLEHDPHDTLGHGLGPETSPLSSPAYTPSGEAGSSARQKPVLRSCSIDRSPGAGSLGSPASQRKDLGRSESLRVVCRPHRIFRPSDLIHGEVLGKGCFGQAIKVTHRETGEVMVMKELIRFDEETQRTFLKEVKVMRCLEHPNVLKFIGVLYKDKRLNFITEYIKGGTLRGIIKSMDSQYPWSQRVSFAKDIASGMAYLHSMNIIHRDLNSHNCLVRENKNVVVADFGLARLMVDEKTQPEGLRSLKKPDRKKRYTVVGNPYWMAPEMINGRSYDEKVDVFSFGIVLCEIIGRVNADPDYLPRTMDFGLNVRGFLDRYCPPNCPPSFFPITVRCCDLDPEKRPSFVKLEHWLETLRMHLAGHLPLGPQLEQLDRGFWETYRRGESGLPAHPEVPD
Method in brief: as §1

[8] = molecular target: T8, MLCK2/MYLK2 (Homo sapiens, UniProt Q9H1R3); details: 500 nM; relative to DMSO; read-out: Residual enzymatic activity
T8 construct: purchased Reaction Biology Corporation
Method in brief: as §1

[9] = molecular target: T9, CDC7/DBF4 (Homo sapiens, UniProt O00311); details: 500 nM; relative to DMSO; read-out: Residual enzymatic activity
T9 construct: purchased Reaction Biology Corporation
Method in brief: as §1

[10] = molecular target: T10, COT1/MAP3K8 (Homo sapiens, UniProt P41279); details: 500 nM; relative to DMSO; read-out: Residual enzymatic activity
T10 construct: purchased Reaction Biology Corporation
T10 sequence (P41279 whole entry): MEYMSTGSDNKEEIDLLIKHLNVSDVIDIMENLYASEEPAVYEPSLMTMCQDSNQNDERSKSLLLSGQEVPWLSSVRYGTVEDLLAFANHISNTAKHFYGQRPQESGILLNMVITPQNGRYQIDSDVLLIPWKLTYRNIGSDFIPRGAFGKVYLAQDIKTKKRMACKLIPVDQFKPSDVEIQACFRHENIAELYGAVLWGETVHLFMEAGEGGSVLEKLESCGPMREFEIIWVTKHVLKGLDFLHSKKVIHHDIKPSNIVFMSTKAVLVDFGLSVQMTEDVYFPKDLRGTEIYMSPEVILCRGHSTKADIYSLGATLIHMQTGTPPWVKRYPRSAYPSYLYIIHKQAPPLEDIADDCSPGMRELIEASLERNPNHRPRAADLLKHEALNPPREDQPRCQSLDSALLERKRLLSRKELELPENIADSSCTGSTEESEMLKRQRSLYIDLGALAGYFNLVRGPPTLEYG
Method in brief: as §1

[11] = molecular target: T11, EPHA3 (Homo sapiens, UniProt P29320); details: 500 nM, relative to DMSO
T11 construct: purchased Reaction Biology Corporation
Method in brief: as §1

[12] = molecular target: T12, PAK4 (Homo sapiens, UniProt O96013); details: 500 nM; relative to DMSO; read-out: Residual enzymatic activity
T12 construct: purchased Reaction Biology Corporation
Method in brief: as §1

[13] = molecular target: T13, CK1g1 (Homo sapiens, UniProt Q9HCP0); details: 500 nM; relative to DMSO; read-out: Residual enzymatic activity
T13 construct: purchased Reaction Biology Corporation
Method in brief: as §1

[14] = molecular target: T14, ZAK/MLTK (Homo sapiens, UniProt Q9NYL2); details: 500 nM; relative to DMSO; read-out: Residual enzymatic activity
T14 construct: purchased Reaction Biology Corporation
T14 sequence (Q9NYL2 whole entry): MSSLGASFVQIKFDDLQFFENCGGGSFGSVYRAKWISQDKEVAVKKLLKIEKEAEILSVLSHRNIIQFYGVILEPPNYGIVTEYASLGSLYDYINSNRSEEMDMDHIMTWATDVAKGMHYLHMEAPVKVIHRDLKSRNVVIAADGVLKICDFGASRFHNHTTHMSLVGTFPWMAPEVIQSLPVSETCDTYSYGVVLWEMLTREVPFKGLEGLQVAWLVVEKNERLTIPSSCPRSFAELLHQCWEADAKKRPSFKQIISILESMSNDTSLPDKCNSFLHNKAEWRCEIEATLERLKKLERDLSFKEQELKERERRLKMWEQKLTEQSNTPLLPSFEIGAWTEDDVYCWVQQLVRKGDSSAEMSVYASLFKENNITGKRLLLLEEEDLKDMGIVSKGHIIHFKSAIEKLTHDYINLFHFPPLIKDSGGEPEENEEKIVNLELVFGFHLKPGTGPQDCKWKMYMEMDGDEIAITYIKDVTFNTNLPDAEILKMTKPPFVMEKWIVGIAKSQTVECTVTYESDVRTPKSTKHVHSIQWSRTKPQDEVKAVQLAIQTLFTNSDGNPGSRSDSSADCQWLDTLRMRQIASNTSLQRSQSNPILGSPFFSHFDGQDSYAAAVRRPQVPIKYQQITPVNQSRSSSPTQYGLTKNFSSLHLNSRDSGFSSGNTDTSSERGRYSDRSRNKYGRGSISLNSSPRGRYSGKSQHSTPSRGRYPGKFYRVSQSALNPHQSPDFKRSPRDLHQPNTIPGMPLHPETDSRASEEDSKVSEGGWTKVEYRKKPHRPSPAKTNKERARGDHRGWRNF
Method in brief: as §1

[15] = molecular target: T15, CDK9/cyclin T1 (Homo sapiens, UniProt P50750); details: 500 nM; relative to DMSO; read-out: Residual enzymatic activity
T15 construct: purchased Reaction Biology Corporation
Method in brief: as §1

[16] = molecular target: T16, SRMS (Homo sapiens, UniProt Q9H3Y6); details: 500 nM; relative to DMSO; read-out: Residual enzymatic activity
T16 construct: purchased Reaction Biology Corporation
Method in brief: as §1

[17] = molecular target: T17, RIPK2 (Homo sapiens, UniProt O43353); details: 500 nM; relative to DMSO; read-out: Residual enzymatic activity
T17 construct: purchased Reaction Biology Corporation
Method in brief: as §1

[18] = molecular target: T18, TNIK (Homo sapiens, UniProt Q9UKE5); details: 500 nM; relative to DMSO; read-out: Residual enzymatic activity
T18 construct: purchased Reaction Biology Corporation
Method in brief: as §1

[19] = molecular target: T19, WEE1 (Homo sapiens, UniProt P30291); details: 500 nM; relative to DMSO; read-out: Residual enzymatic activity
T19 construct: purchased Reaction Biology Corporation
Method in brief: as §1

[20] = molecular target: T20, TESK1 (Homo sapiens, UniProt Q15569); details: 500 nM; relative to DMSO; read-out: Residual enzymatic activity
T20 construct: purchased Reaction Biology Corporation
Method in brief: as §1

[21] = molecular target: T21, GRK1 (Homo sapiens, UniProt Q15835); details: 500 nM; relative to DMSO; read-out: Residual enzymatic activity
T21 construct: purchased Reaction Biology Corporation
Method in brief: as §1

[22] = molecular target: T22, FGFR1 (Homo sapiens, UniProt P11362); details: 500 nM, relative to DMSO
T22 construct: purchased Reaction Biology Corporation
Method in brief: as §1

[23] = molecular target: T23, TAOK2/TAO1 (Homo sapiens, UniProt Q9UL54); details: 500 nM; relative to DMSO; read-out: Residual enzymatic activity
T23 construct: purchased Reaction Biology Corporation
Method in brief: as §1

[24] = molecular target: T24, CDK6/cyclin D3 (Homo sapiens, UniProt Q00534); details: 500 nM; relative to DMSO; read-out: Residual enzymatic activity
T24 construct: purchased Reaction Biology Corporation
Method in brief: as §1

[25] = molecular target: T25, DAPK1 (Homo sapiens, UniProt P53355); details: 500 nM; relative to DMSO; read-out: Residual enzymatic activity
T25 construct: purchased Reaction Biology Corporation
Method in brief: as §1

[26] = molecular target: T26, WNK2 (Homo sapiens, UniProt Q9Y3S1); details: 500 nM; relative to DMSO; read-out: Residual enzymatic activity
T26 construct: purchased Reaction Biology Corporation
Method in brief: as §1

[27] = molecular target: T27, Aurora C (Homo sapiens, UniProt Q9UQB9); details: 500 nM; relative to DMSO; read-out: Residual enzymatic activity
T27 construct: purchased Reaction Biology Corporation
Method in brief: as §1

[28] = molecular target: T28, FLT1/VEGFR1 (Homo sapiens, UniProt P17948); details: 500 nM, relative to DMSO; for remaining activity at 0.5 µM: read-out: Residual enzymatic activity
T28 construct: purchased Reaction Biology Corporation
T28 sequence (P17948 27-1338): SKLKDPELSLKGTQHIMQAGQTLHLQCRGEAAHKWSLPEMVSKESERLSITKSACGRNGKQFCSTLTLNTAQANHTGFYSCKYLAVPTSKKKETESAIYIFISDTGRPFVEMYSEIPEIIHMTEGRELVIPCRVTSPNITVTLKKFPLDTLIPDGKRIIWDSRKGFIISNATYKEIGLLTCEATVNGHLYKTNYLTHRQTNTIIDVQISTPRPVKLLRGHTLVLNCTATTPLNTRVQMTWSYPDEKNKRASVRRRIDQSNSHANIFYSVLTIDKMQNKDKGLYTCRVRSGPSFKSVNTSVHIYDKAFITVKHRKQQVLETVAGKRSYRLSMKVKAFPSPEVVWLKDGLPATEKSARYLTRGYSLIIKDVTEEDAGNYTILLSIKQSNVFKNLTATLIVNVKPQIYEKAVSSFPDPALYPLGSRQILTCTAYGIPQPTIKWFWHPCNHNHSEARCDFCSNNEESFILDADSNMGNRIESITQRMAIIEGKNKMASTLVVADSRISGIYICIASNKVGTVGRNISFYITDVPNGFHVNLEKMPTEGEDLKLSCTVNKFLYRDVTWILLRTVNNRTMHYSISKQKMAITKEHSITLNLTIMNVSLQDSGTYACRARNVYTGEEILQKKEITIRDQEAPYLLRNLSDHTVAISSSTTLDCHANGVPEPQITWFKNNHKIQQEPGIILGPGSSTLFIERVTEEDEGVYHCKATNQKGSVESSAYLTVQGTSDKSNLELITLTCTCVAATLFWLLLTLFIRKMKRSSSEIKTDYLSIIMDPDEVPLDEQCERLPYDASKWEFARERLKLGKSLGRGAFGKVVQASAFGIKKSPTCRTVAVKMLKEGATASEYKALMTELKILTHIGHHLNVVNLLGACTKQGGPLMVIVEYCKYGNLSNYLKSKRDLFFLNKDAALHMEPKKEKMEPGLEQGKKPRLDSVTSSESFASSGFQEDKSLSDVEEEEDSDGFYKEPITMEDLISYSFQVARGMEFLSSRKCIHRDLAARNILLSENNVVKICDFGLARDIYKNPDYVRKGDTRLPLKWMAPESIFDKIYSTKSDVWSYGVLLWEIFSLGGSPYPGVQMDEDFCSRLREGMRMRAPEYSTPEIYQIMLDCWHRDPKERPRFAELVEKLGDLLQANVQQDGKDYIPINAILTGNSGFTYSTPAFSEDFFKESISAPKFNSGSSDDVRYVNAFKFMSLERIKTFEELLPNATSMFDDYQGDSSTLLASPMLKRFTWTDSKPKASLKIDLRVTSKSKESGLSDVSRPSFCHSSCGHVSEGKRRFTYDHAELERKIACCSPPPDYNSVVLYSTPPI
Method in brief: as §1

[29] = molecular target: T29, LATS1 (Homo sapiens, UniProt O95835); details: 500 nM; relative to DMSO; read-out: Residual enzymatic activity
T29 construct: purchased Reaction Biology Corporation
Method in brief: as §1

[30] = molecular target: T30, FRK/PTK5 (Homo sapiens, UniProt P42685); details: 500 nM, relative to DMSO; for remaining activity at 0.5 µM: read-out: Residual enzymatic activity
T30 construct: purchased Reaction Biology Corporation
T30 sequence (P42685 whole entry): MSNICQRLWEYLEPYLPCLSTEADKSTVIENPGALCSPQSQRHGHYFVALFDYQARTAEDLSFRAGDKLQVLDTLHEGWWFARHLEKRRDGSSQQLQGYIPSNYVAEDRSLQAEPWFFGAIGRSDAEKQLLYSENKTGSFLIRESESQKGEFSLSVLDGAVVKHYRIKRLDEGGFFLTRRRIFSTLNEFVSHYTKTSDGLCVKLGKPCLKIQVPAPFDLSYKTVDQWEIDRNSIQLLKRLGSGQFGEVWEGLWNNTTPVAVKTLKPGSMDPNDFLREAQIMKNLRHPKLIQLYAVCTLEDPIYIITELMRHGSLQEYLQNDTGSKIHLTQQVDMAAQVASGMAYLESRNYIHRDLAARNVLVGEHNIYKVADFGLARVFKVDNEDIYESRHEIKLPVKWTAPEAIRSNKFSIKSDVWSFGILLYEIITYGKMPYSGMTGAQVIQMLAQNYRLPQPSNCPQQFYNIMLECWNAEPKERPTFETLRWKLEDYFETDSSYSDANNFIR
Method in brief: as §1

[31] = molecular target: T31, EPHA8 (Homo sapiens, UniProt P29322); details: 500 nM, relative to DMSO
T31 construct: purchased Reaction Biology Corporation
Method in brief: as §1

[32] = molecular target: T32, FER (Homo sapiens, UniProt P16591); details: 500 nM; relative to DMSO; read-out: Residual enzymatic activity
T32 construct: purchased Reaction Biology Corporation
Method in brief: as §1

[33] = molecular target: T33, ASK1/MAP3K5 (Homo sapiens, UniProt Q99683); details: 500 nM; relative to DMSO; read-out: Residual enzymatic activity
T33 construct: purchased Reaction Biology Corporation
Method in brief: as §1

[34] = molecular target: T34, EPHA5 (Homo sapiens, UniProt P54756); details: 500 nM, relative to DMSO
T34 construct: purchased Reaction Biology Corporation
Method in brief: as §1

[35] = molecular target: T35, AKT3 (Homo sapiens, UniProt Q9Y243); details: 500 nM; relative to DMSO; read-out: Residual enzymatic activity
T35 construct: purchased Reaction Biology Corporation
Method in brief: as §1

[36] = molecular target: T36, CHK1 (Homo sapiens, UniProt O14757); details: 500 nM; relative to DMSO; read-out: Residual enzymatic activity
T36 construct: purchased Reaction Biology Corporation
Method in brief: as §1

[37] = molecular target: T37, TYK1/LTK (Homo sapiens, UniProt P29376); details: 500 nM; relative to DMSO; read-out: Residual enzymatic activity
T37 construct: purchased Reaction Biology Corporation
Method in brief: as §1

[38] = molecular target: T38, JAK1 (Homo sapiens, UniProt P23458); details: 500 nM; relative to DMSO; read-out: Residual enzymatic activity
T38 construct: purchased Reaction Biology Corporation
Method in brief: as §1

[39] = molecular target: T39, GRK7 (Homo sapiens, UniProt Q8WTQ7); details: 500 nM; relative to DMSO; read-out: Residual enzymatic activity
T39 construct: purchased Reaction Biology Corporation
Method in brief: as §1

[40] = 10-dose mode, threefold serial dilution from 10 μM
[41] = read-out: Residual enzymatic activity

COc1cc(Nc2ncnc(Nc3cc4c(cn3)NC(=O)C(C)(C)O4)n2)cc(OC)c1OC [MT-SYK-03]
remaining activity at 0.5 µM [1]: 25.7% | IC50 [1, 40]: 0.0142 µM | remaining activity at 0.5 µM [2]: 108% | remaining activity at 0.5 µM [3]: 93.6% | remaining activity at 0.5 µM [4]: 11.6% | IC50 [4, 40]: 0.0035 µM | inhibition at 0.5 µM ([4]; read-out: Inhibition at 500 nM): > 90% | remaining activity at 0.5 µM [5]: 96.5% | remaining activity at 0.5 µM [6]: 99% | remaining activity at 0.5 µM [7]: 11.4% | IC50 [7, 40]: 0.045 µM and 0.0446 µM | remaining activity at 0.5 µM [8]: 105% | remaining activity at 0.5 µM [9]: 102% | remaining activity at 0.5 µM [10]: 90.4% | Residual enzymatic activity [11]: 91.8% | remaining activity at 0.5 µM [12]: 92.1% | remaining activity at 0.5 µM [13]: 93.5% | remaining activity at 0.5 µM [14]: 92.9% | remaining activity at 0.5 µM [15]: 118% | remaining activity at 0.5 µM [16]: 99.7% | remaining activity at 0.5 µM [17]: 84.7% | remaining activity at 0.5 µM [18]: 78.6% | remaining activity at 0.5 µM [19]: 108% | remaining activity at 0.5 µM [20]: 94.5% | remaining activity at 0.5 µM [21]: 105% | Residual enzymatic activity [22]: 77.5% | remaining activity at 0.5 µM [23]: 105% | remaining activity at 0.5 µM [24]: 101% | remaining activity at 0.5 µM [25]: 113% | remaining activity at 0.5 µM [26]: 84.6% | remaining activity at 0.5 µM [27]: 89.2% | Residual enzymatic activity [28]: did not inhibit | remaining activity at 0.5 µM [28]: 65.4% | remaining activity at 0.5 µM [29]: 99.4% | Residual enzymatic activity [30]: 56.5% | remaining activity at 0.5 µM [30]: > 54% | Residual enzymatic activity [31]: 99.7% | remaining activity at 0.5 µM [32]: 78.8% | remaining activity at 0.5 µM [33]: 102% | Residual enzymatic activity [34]: 76.4% | remaining activity at 0.5 µM [35]: 103% | remaining activity at 0.5 µM [36]: 91.4% | remaining activity at 0.5 µM [37]: 92% | remaining activity at 0.5 µM [38]: 63.4% | remaining activity at 0.5 µM [39]: 99.7%

COc1cc(Nc2ncc(F)c(Nc3ccc4c(n3)NC(=O)C(C)(C)O4)n2)cc(OC)c1OC [R406, reference compound]
remaining activity at 0.5 µM [1]: 14.5% | remaining activity at 0.5 µM [2]: 77.2% | remaining activity at 0.5 µM [3]: 43.3% | remaining activity at 0.5 µM [4]: 10.1% | remaining activity at 0.5 µM [5]: 41.2% | remaining activity at 0.5 µM [6]: 90.3% | remaining activity at 0.5 µM [7]: 7.2% | remaining activity at 0.5 µM [8]: 89.2% | remaining activity at 0.5 µM [9]: 82.6% | remaining activity at 0.5 µM [10]: 100% | remaining activity at 0.5 µM [11, 41]: 85.6% | remaining activity at 0.5 µM [12]: 53.9% | remaining activity at 0.5 µM [13]: 92.7% | remaining activity at 0.5 µM [14]: 85.4% | remaining activity at 0.5 µM [15]: 99.5% | remaining activity at 0.5 µM [16]: 101% | remaining activity at 0.5 µM [17]: 73% | remaining activity at 0.5 µM [18]: 83.1% | remaining activity at 0.5 µM [19]: 105% | remaining activity at 0.5 µM [20]: 85.7% | remaining activity at 0.5 µM [21]: 96% | remaining activity at 0.5 µM [22, 41]: 29% | remaining activity at 0.5 µM [23]: 47.4% | remaining activity at 0.5 µM [24]: 97.4% | remaining activity at 0.5 µM [25]: 65.2% | remaining activity at 0.5 µM [26]: 95.2% | remaining activity at 0.5 µM [27]: 42.1% | remaining activity at 0.5 µM [28]: 12.4% | remaining activity at 0.5 µM [29]: 79.6% | remaining activity at 0.5 µM [30]: 35% | remaining activity at 0.5 µM [31, 41]: 92.6% | remaining activity at 0.5 µM [32]: 22.9% | remaining activity at 0.5 µM [33]: 97.1% | remaining activity at 0.5 µM [34, 41]: 60.9% | remaining activity at 0.5 µM [35]: 95.2% | remaining activity at 0.5 µM [36]: 78.6% | remaining activity at 0.5 µM [37]: 30.2% | remaining activity at 0.5 µM [38]: 0% | remaining activity at 0.5 µM [39]: 89.6%
